pIC50: −log10 of the molar value.
Tests used:
Assay type in all cases: biochemical
[1] = biological target: T1, human neutrophil elastase (HNE) (Homo sapiens, UniProt P08246); test: Specificity assay, neutrophil elastase; details: read-out: HLE activity in the specificity assays
T1 construct: purchased Sigma, EMDbiosciences
T1 sequence (P08246 30-267): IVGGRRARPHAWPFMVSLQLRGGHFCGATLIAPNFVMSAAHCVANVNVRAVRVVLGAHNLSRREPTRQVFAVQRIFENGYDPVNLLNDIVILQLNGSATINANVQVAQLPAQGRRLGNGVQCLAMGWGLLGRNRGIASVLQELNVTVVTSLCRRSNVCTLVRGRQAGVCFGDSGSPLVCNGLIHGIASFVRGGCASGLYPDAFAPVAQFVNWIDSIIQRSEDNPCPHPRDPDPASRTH
Method: (§1) The specificities of compounds of the present disclosure were determined against a variety of serine proteases: human neutrophil elastase (HNE), porcine pancreatic elastase (PPE) and human pancreatic chymotrypsin and one cysteine protease: human liver cathepsin B. In all cases a 96-well plate format protocol using a fluorometric Amino-Methyl-Coumarin (AMC) substrate specific for each enzyme was used as described previously (PCT Patent Application No. WO 00/09543) with some modifications to the serine protease assays. All enzymes were purchased from Sigma, EMDbiosciences while the substrates were from Bachem, Sigma and EMDbiosciences.
(§2) Compound concentrations varied from 100 to 0.4 μM depending on their potency. The enzyme assays were each initiated by addition of substrate to enzyme-inhibitor pre-incubated for 10 min at room temperature and hydrolysis to 15% conversion as measured on cytofluor.
50 mM Tris-HCl, pH 8.0, 50 mM NaCl, 0.1 mM EDTA, 3% DMSO, 0.02% Tween-20, 5 μM succ-AAPV-AMC and 20 nM HNE or 8 nM PPE;
(§3) The percentage of inhibition was calculated using the formula: [1−((UVinh−UVblank)/(UVctl−UVblank))]×100
(§4) A non-linear curve fit was applied to the inhibition-concentration data, and the 50% effective concentration (IC50) was calculated by the use of Excel XLfit software.

[2] = tested on: human pancreatic chymotrypsin; test: Specificity assay, chymotrypsin; details: read-out: Chymotrypsin activity in the specificity assays
Method: as §1, §2
50 mM Tris(hydroxymethyl)aminomethane hydrochloride (Tris-HCl) pH 8, 0.5 M Sodium Sulfate (Na2SO4), 50 mM NaCl, 0.1 mM EDTA, 3% DMSO, 0.01% Tween-20 with 5 μM LLVY-AMC and 1 nM Chymotrypsin.
as §3, §4

[3] = biological target: T2, HCV NS3/4A protease complex, H77 strain (1a genotype) (Hepatitis C virus genotype 1a, UniProt P27958, C1454S/C1711G); test: FRET peptide assay to monitor HCV NS3/4A proteolytic activity (H77 strain); details: read-out: IC50 against NS3/4A H77 strain
T2 construct: DNA encoding the recombinant HCV NS3/4A protease complex (amino acids 1027 to 1711) for these strains; made in house; host or cells: Escherichia coli BL21 (DE3), pET21b
Text: HCV NS3 protease complexes, derived from the BMS strain, H77 strain or J4L6S strain, were generated, as described below. These purified recombinant proteins were generated for use in a homogeneous assay (see below) to provide an indication of how effective compounds of the present disclosure would be in inhibiting HCV NS3 proteolytic activity.
Serum from an HCV-infected patient was obtained from Dr. T. Wright, San Francisco Hospital. An engineered full-length cDNA (compliment deoxyribonucleic acid) template of the HCV genome (BMS strain) was constructed from DNA fragments obtained by reverse transcription-PCR(RT-PCR) of serum RNA (ribonucleic acid) and using primers selected on the basis of homology between other genotype la strains. From the determination of the entire genome sequence, a genotype la was assigned to the HCV isolate according to the classification of Simmonds et al. (See P Simmonds, K A Rose, S Graham, S W Chan, F McOmish, B C Dow, E A Follett, P L Yap and H Marsden, J. Clin. Microbiol., 31(6), 1493-1503 (1993)). […]

T2 sequence (P27958 1027-1711 C1454S/C1711G, one chain of several): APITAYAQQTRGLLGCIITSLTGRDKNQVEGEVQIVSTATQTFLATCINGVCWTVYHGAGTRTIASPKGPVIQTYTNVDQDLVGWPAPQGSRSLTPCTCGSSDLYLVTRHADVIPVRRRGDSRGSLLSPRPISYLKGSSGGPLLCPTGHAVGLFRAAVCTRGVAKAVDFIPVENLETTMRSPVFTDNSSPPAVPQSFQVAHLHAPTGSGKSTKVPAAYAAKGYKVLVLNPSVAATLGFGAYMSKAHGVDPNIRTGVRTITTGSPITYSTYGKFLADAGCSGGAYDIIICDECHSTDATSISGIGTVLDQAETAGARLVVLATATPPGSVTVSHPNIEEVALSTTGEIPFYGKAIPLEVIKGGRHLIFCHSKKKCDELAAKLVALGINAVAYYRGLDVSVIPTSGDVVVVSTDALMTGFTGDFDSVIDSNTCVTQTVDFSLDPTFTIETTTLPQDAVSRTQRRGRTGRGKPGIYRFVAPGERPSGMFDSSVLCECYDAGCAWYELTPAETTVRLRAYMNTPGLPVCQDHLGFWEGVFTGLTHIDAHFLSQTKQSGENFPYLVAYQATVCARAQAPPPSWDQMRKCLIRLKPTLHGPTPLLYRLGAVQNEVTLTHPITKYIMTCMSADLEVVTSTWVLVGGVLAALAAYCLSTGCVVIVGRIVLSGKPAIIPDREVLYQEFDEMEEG

Molecule C=C[C@@H]1C[C@]1(NC(=O)[C@@H]1C[C@@](O)(c2ccc(-c3ccccc3)cc2)CN1C(=O)[C@@H](NC(=O)OC(C)(C)C)C(C)(C)C)C(=O)NS(=O)(=O)C1CC1 [Compound 3] has a pIC50 [1] of 4.09, a pIC50 [2] of 4.12 and a pIC50 [3] of 8.80.
